Target: T1, JAK1 (Homo sapiens, UniProt P23458)
T1 construct: purchased Thermo Fisher Scientific
Experiment: Z'-LYTE JAK1 kinase screen (Thermo Fisher Scientific)
Type: biochemical
Conditions: 1% DMSO, ATP at Km apparent; for inhibition at 0.01 µM: test compound 10 nM; for inhibition at 0.1 µM: test compound 100 nM; for % Inhibition 1000 nm: test compound 1000 nm (so in the source)
Procedure: The example compounds were screened for Jak1 activity at Thermo Fisher Scientific, using their Z′-Lyte™ protocol, as described below. Selectivity screening against other kinases can be performed following similar procedures. Z′-LYTE Assay Conditions: The Test Compounds are screened in 1% DMSO (final) in the well. Three screening concentrations (10, 100, and 1000 nM) of test compounds were used. Peptide/Kinase Mixtures: All Peptide/Kinase Mixtures are diluted to a 2× working concentration in the appropriate Kinase Buffer (For JAK1, the 2×JAK1/Tyr 06 mixture is prepared in 50 mM HEPES pH 6.5, 0.01% BRIJ-35, 10 mM MgCl2, 1 mM EGTA, 0.02% NaN3. The final 10 μL Kinase Reaction consists of 21.2-91.5 ng JAK1 and 2 μM Tyr 06 in 50 mM HEPES pH 7.0, 0.01% BRIJ-35, 10 mM MgCl2, 1 mM EGTA, 0.01% NaN3. After the 1 hour Kinase Reaction incubation, 5 μL of a 1:128 dilution of Development Reagent A is added). ATP Solution: All ATP Solutions are diluted to a 4× working concentration in Kinase Buffer (50 mM HEPES pH 7.5, 0.01% BRIJ-35, 10 mM MgCl2, 1 mM EGTA). ATP: Km apparent is previously determined using a Z′-LYTE assay. 10× Novel PKC Lipid Mix: 2 mg/ml Phosphatidyl Serine, 0.2 mg/ml DAG in 20 mM HEPES, pH 7.4, 0.3% CHAPS. For 5 mL 10× Novel PKC Lipid Mix: • 1. Add 10 mgs Phosphatidyl Serine (Avanti Polar Lipids Part #8400032C or 840039C) and 1 mg DAG (Avanti Polar Lipids Part #800811C) to a glass tube. • 2. Remove the chloroform from lipid mixture by evaporating to a clear, thin film under a stream of nitrogen. Continuous rotation of the tube, at an angle to ensure maximum surface area of the lipid solution, will promote the thinnest film. • 3. Add 5 mLs resuspension buffer, 20 mM HEPES, 0.3% CHAPS, pH 7.4, to the dried lipid mix • 4. Heat gently to 50-60° C. for 1-2 minutes and vortex in short intervals until the lipids are dissolved to a clear or slightly hazy solution. The lipids are typically in solution after 2-3 heat/vortex cycles. • 5. Cool to room temperature, aliquot into single use volumes and store at −20° C. Assay Protocol Bar-coded Corning, low volume NBS, black 384-well plate (Corning Cat. #4514) • 1. 100 nL—100× Test Compound in 100% DMSO • 2. 2.4 μL—Kinase buffer • 3. 5 μL—2× Peptide/Kinase Mixture • 4. 2.5 μL—4×ATP Solution • 5. 30-second plate shake • 6. 60-minute Kinase Reaction incubation at room temperature • 7. 5 μL—Development Reagent Solution • 8. 30-second plate shake • 9. 60-minute Development Reaction incubation at room temperature • 10. Read on fluorescence plate reader and analyze the data.

T1 sequence (P23458 whole entry): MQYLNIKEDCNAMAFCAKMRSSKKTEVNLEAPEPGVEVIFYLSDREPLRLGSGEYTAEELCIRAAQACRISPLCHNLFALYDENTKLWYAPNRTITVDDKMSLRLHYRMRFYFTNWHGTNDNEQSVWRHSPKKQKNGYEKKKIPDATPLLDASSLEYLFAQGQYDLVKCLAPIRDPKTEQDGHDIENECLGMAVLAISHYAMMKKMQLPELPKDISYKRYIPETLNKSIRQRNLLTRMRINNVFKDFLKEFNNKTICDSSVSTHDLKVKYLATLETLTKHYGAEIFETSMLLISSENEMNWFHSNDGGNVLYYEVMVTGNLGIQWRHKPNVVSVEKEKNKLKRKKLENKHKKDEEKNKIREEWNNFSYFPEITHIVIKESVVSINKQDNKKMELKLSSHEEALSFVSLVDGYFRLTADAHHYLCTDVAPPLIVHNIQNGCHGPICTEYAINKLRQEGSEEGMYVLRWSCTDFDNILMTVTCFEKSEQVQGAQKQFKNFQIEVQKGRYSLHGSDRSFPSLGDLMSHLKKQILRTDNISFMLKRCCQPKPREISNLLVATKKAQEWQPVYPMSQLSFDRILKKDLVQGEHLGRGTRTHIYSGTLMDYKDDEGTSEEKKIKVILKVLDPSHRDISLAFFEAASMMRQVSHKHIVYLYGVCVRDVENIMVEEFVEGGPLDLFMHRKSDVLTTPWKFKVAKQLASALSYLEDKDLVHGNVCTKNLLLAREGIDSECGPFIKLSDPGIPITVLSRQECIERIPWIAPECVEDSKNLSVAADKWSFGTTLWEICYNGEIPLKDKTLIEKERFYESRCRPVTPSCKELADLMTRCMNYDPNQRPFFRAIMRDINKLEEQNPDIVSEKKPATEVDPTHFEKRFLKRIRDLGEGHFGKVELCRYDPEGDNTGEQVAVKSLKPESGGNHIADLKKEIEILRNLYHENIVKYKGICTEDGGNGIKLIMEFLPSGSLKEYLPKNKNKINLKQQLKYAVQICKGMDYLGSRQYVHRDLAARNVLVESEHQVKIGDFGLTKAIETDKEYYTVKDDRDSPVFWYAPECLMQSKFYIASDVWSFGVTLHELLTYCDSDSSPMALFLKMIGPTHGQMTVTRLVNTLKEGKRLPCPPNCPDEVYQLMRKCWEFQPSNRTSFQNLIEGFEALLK

SMILES | inhibition at 0.01 µM | inhibition at 0.1 µM | % Inhibition 1000 nm
CN(c1ncnc2[nH]ccc12)C1CC2(CC(NS(=O)(=O)c3ccccc3)C2)C1 (centres unmarked) [Compound 11, N-[2-[methyl(7H-pyrrolo[2,3-d]pyrimidin-4-yl)amino]spiro[3.3]heptan-6-yl]benzenesulfonamide] | 11% | 81% | 95%
CN(c1ncnc2[nH]ccc12)C1CC2(C1)CC(S(=O)(=O)NC1CC1)C2 (centres unmarked) [Compound 5, N-cyclopropyl-6-[methyl(7H-pyrrolo[2,3-d]pyrimidin-4-yl)amino]spiro[3.3]heptane-2-sulfonamide] | 61% | 94% | 99%
CN(c1ncnc2[nH]ccc12)C1CC2(CC(NS(=O)(=O)c3ccc(C(F)(F)F)cc3)C2)C1 (centres unmarked) [Compound 14, N-[2-[methyl(7H-pyrrolo[2,3-d]pyrimidin-4-yl)amino]spiro[3.3]heptan-6-yl]-4-(trifluoromethyl)benzenesulfonamide] | 1% | 56% | 92%
CNS(=O)(=O)C1CC2(CC(N(C)c3ncnc4[nH]ccc34)C2)C1 (centres unmarked) [Compound 1, N-methyl-6-[methyl(7H-pyrrolo[2,3-d]pyrimidin-4-yl)amino]spiro[3.3]heptane-2-sulfonamide] | 71% | 92% | 96%
CN(c1ncnc2[nH]ccc12)C1CC2(C1)CC(S(=O)(=O)NCC(F)(F)F)C2 (centres unmarked) [Compound 6, 6-[methyl(7H-pyrrolo[2,3-d]pyrimidin-4-yl)amino]-N-(2,2,2-trifluoroethyl)spiro[3.3]heptane-2-sulfonamide] | 63% | 93% | 96%

Other lines, results leading:

inhibition at 0.01 µM | inhibition at 0.1 µM | % Inhibition 1000 nm | SMILES
2% | 4% | 19% | CNS(=O)(=O)C1CC2(CC(N(C)c3ncnc4[nH]ncc34)C2)C1 (centres unmarked) [Compound 25, N-methyl-6-[methyl(1H-pyrazolo[3,4-d]pyrimidin-4-yl)amino]spiro[3.3]heptane-2-sulfonamide]
76% | 96% |  | CN(c1ncnc2[nH]ccc12)C1CC2(CC(CNS(C)(=O)=O)C2)C1 (centres unmarked) [Compound 22, N-((6-(methyl(7H-pyrrolo[2,3-d]pyrimidin-4-yl)amino)spiro[3.3]heptan-2-yl)methyl)methanesulfonamide]

Source: patent US10744136B2, “Sulfonamide derivatives as JAK inhibitors” (Avista Pharma Solutions, Inc., priority 2018, dated 2020)
